From patent US20090317444A1, “PROCESS FOR CELL PROLIFERATION” (BIOBERICA, S.A., priority 2006, published 2009) come the findings set out here.

“Also recorded” adds a separate entry of the source.

The subject of one assay is bovine chondrocytes. The assay is described as follows: Glycosaminoglycan content per chondrocyte (GAG with respect to DNA). Type of assay: cell-based. The conditions noted are these: for effect on GAGs levels per chondrocyte (in words): 5 and 10 mM, FIG. 4. The protocol:
Bovine chondrocytes were used as starting point and the same methodology was followed as in Example 1 (chondrocyte proliferation measured through DNA levels), but in this case each compound was tested at two concentrations (5 and 10 mM).
The GAG content was determined, after digestion with papain, with the Blyscan™ assay (kit) from Biocolor Ltd.
(§1) The evaluation of the differences between all compounds and the control condition was assayed using analysis of variance (ANOVA). Then, the LSD test was performed to determine the difference between each compound and the control condition. They were considered statistically significant when p≦0.05.

Assay [1] deals with chondrocytes of bovine origin. The assay is described as follows: Proliferation of chondrocytes measured through DNA levels (alginate beads). It counts as cell-based. The note with it: 10 days culture in alginate beads; for increase in DNA levels relative to the control (without compound): 10 mM; for effect on DNA levels per alginate bead (in words): 1, 5 and 10 mM, FIG. 1. The protocol:
Chondrocytes of bovine origin were isolated using digestion with collagenase following a previously described process (B. Beekman et al., Exp. Cell Res., 237, 135-141 (1997)).
The isolated bovine chondrocytes were cultured following a methodology described in the literature (J. DeGroot, et al., 266, 303-310 (2001)). The chondrocytes were transferred to an alginate support matrix, forming alginate beads which contain the cells at a concentration of 2.5×10^6 cells/ml, and DMEM (Dulbecco's Modified Eagle's Medium) with Glutamax was added to them supplemented with ascorbic acid, penicillin, streptomycin and FCS (foetal cow serum). After 24 hours, the medium was renewed and the chondrocytes contained in alginate beads (5 beads/well, with 250 μl of medium/well, in plates of 48 wells) were cultured in the absence (control) or presence of the compound to test (at concentrations of 1, 5 and 10 mM). The medium was regenerated twice a week. At the end of 10 days, the beads were collected (5 beads in each well, n=3 wells per condition) and they were stored at a temperature of −20° C. until making the analysis.
To quantify DNA levels, the beads were digested with papain and Hoechst 33258 (bisbenzimide) dye was used. DNA levels per alginate bead were determined.
as §1

For assay [2], the system named is chondrocytes of bovine origin. The assay is described as follows: Release of glycosaminoglycans from the chondrocytes in alginate beads after stimulation with IL-1β. Type of assay: cell-based. The note with it: IL-1β 20 ng/ml, 48 hours; for effect on release of GAGs by the chondrocytes (in words): 10 mM, FIG. 2. The protocol: Chondrocytes of bovine origin were cultured for 21 days in alginate beads as support matrix; approximately 100 beads in 75 cm^2 culture dishes in 25 ml of medium, without adding the compounds to be tested. The medium was regenerated twice a week. After 21 days of culture, the beads were transferred to 48-well plates, 5 beads per well, 250 μl of medium per well. The compounds to be tested were added on day 21 (mannosamine hydrochloride, glucosamine hydrochloride and N-acetylglucosamine) to evaluate the effect on the degradation of the extracellular matrix after stimulation with IL-1β (20 ng/ml). Each compound was tested at concentrations of 1 and 10 mM. In each experiment each concentration was tested at n=3 wells, except in the control (n=8 wells). Once the alginate beads have been incubated with IL-1β (20 ng/ml) and the compounds during 48 hours, the culture medium was collected (day 21 to day 23). The GAGs content in the beads and in the culture medium on day 23 was measured (release of GAGs mediated by aggrecanase). The GAGs content was determined, after digestion with papain, with the Blyscan™ assay (kit) from Biocolor Ltd.
The results were expressed as a percentage of released GAGs with respect to total GAGs.
as §1

The subject of assay [3] is metalloprotease activity (MMP) of the chondrocytes. Description: Metalloprotease activity of the chondrocytes in alginate beads after stimulation with IL-1β and activation with APMA. Type of assay: cell-based, bovine. The note with it: IL-1β 20 ng/ml, 1 mM APMA. The protocol:
Bovine chondrocytes were used as starting point and the methodology of the Example 2 was followed, but in this case each compound was tested at two concentrations (5 and 10 mM).
The chondrocytes were cultured for 21 days in alginate to produce extracellular matrix. After 2 days of stimulation with IL-1β and with or without compounds, the medium was renewed. The metalloprotease activity was then determined in the culture medium after 2 hours of incubation with 20 ng/ml of IL-1β, 1 mM of APMA and with or without the compounds. The metalloprotease activity was quantified using the substrate for metalloproteases TNO 211-F (I. Tchetverikov et al., Clin. Exp. Rheumatol. 21, 711-8 (2003)).
as §1

As for `CC(=O)N[C@@H]1C(O)O[C@H](CO)[C@@H](O)[C@@H]1O` (stereo partly shown) [N-acetylmannosamine], the “increase of GAG content per chondrocyte with respect to the control (culture without product)” value in the assay on bovine chondrocytes (10 mM) is on record as 63%. Also, the “effect on GAGs levels per chondrocyte (in words)” value with bovine chondrocytes is “dose-dependent increase in GAGs levels per chondrocyte”.

As for `Cl.N[C@H]1C(O)O[C@H](CO)[C@@H](O)[C@@H]1O` (stereo partly shown) [glucosamine hydrochloride, reference compound], in assay [1], the “increase in DNA levels relative to the control (without compound)” value came out at 4 times and the “effect on DNA levels per alginate bead (in words)” value is recorded as “dose-dependent increase in DNA levels”. The “effect on release of GAGs by the chondrocytes (in words)” value in assay [2] is “reduced the release of GAGs”.

Turning to `CC(=O)N[C@H]1C(O)O[C@H](CO)[C@@H](O)[C@@H]1O` (stereo partly shown) [N-acetylglucosamine, reference compound], the “effect on DNA levels per alginate bead (in words)” value in assay [1] was “No significant effect”. For the same compound, the “effect on GAGs levels per chondrocyte (in words)” value in the assay on bovine chondrocytes was “No significant effect”.

With `Cl.N[C@@H]1C(O)O[C@H](CO)[C@@H](O)[C@@H]1O` (stereo partly shown) [mannosamine hydrochloride], the “increase in DNA levels relative to the control (without compound)” value in assay [1] is 10 times. The “effect on DNA levels per alginate bead (in words)” value in assay [1] (hydrochloride) was “highest levels of DNA/bead; also recorded: dose-dependent increase in DNA levels”. Besides, the “effect on release of GAGs by the chondrocytes (in words)” value in assay [2] was “reduced the release of GAGs”. In assay [2] (upper concentration (10 mM)), the “reduction of the release of GAGs with respect to the control (culture without compound)” value is recorded as 30%. The “reduction in metalloprotease activity with respect to the control” value in assay [3] (10 mM) came to 30%. Also, in assay [3] (5 and 10 mM, FIG. 3), the “effect on metalloprotease activity (in words)” value is given as “the only one which reduced metalloprotease activity”.
